# What was measured:
# solid tumor malignancies = test: Efficacy study in humans with solid tumors (RECIST, CT scan or MRI); assay type: in vivo, human; parameters: key to Response time and response: PR means partial response; CR means complete response
# Source text: Complete Response (CR), as used herein, unless otherwise indicated, refers to disappearance of all measurable and nonmeasurable lesions and no appearance of new lesions in a patient under the treatment of compound of formula 1, its pharmaceutically acceptable salt or solvate thereof, or a mixture thereof.
# Partial Response (PR), as used herein, unless other wise indicated, refers to at least a 30% decrease in the sum of the LDs of target lesions (taking as reference the baseline sum), without progression of nontarget lesions and no appearance of new lesions in a patient under treatment of compound of formula 1, its pharmaceutically acceptable salt or solvate thereof, or a mixture thereof.
# 50 patients were treated under a dose-escalating multicenter study of patients with solid tumor malignancies not amenable to conventional therapies. The types of tumor malignancies that the patients had included colorectal carcinoma, renal cell carcinoma, esophageal carcinoma, thymus carcinoma, mastocytosis, lung cancer and multiple endocrine neoplasia type II and other malignances. Patients were treated in cohorts of 6 with escalating QD (once per day) doses of a maleate salt of a compound of formula 1. Each study cycle was a five week cycle consisting of 4 weeks of treatment followed by 1 week of rest (4/1 schedule) or a five week cycle of continuous dosing without any rest period.
# Of these 50 patients, all patients were evaluated for efficacy determinations. Tumor size was measured at the end of each cycle of treatment. […] The partial response of four of these seven patients was confirmed by a repeat assessment four weeks later. The partial response of the other three patients has not been confirmed. The tumor shrinkage was determined by either CT scan or MRI as per RECIST criteria.
# [1] = tested on: solid and hematopoietic cancer xenograft models; conditions: diverse preclinical solid and hematopoietic cancer xenograft models; cited from earlier work
smiles,measurement,setting,value
"Cc1[nH]c(/C=C2\C(=O)Nc3ccc(F)cc32)c(C)c1C(=O)NC[C@H](O)CN1CCOCC1 [compound 1, 5-[(Z)-(5-fluoro-2-oxo-1,2-dihydro-3H-indol-3-ylidene)methyl]-N-[(2S)-2-hydroxy-3-morpholin-4-ylpropyl]-2,4-dimethyl-1H-pyrrole-3-carboxamide]",Response time and response,"solid tumor malignancies; Patient 1, Renal cell carcinoma, 50 mg 4/1 QD, after 2nd cycle",PR
same,Response time and response,"solid tumor malignancies; Patient 1, Renal cell carcinoma, 50 mg 4/1 QD, at cycle 5",CR
same,Response time and response,"solid tumor malignancies; Patient 2, Biliary cell Carcinoma, 100 mg 4/1 QD, at cycle 5, confirmed","PR at cycle 5, confirmed."
same,Response time and response,"solid tumor malignancies; Patient 3, Thyroid carcinoma, 150 mg QD 4/1, after 1st cycle, confirmed","PR after 1st cycle,"
same,Response time and response,"solid tumor malignancies; Patient 4, Colon adenocarcinoma, 150 mg QD 4/1, after 1st cycle, not confirmed","PR after 1st cycle, not"
same,Response time and response,"solid tumor malignancies; Patient 5, Renal cell carcinoma, 250 mg QD 4/1, after 1st cycle, confirmed","PR after 1st cycle,"
same,Response time and response,"solid tumor malignancies; Patient 6, Alveolar soft tissue carcinoma, cycle 1 250 mg QD 4/1, cycle 2 and beyond 200 mg QD 4/1, not confirmed","PR, not confirmed"
same,Response time and response,"solid tumor malignancies; Patient 7, Renal cell carcinoma, 150 mg continuous, after 1st cycle, not confirmed","PR after 1st cycle, not"
same,Response time and response,"solid tumor malignancies; Patient 8, Thymoma, cycle 1 150 mg continuous, cycle 2 and beyond 100 mg continuous, not confirmed","PR, not confirmed."
same,patients showing complete response,solid tumor malignancies; among the 50 patients,1 patient
same,patients showing partial response,solid tumor malignancies; among the 50 patients,7 patients
same,partial responses confirmed by a repeat assessment four weeks later,solid tumor malignancies; of the seven patients with partial response,four
same,anti-tumor activity,[1],has anti-tumor activity

# Reference: patent US20090012085A1, “DOSAGE FORMS AND METHODS OF TREATMENT USING A TYROSINE KINASE INHIBITOR” (priority 2005, published 2009)
